Laboratory results as given in patent publication US11479528B2, “Heat shock protein 90 inhibitors” (TAIPEI MEDICAL UNIVERSITY, priority 2017, dated 2022).
Read-outs that look alike come from different tables or passages of the source.

Experiments:
lung A549 = assay: Sulforhodamine B (SRB) assay, lung A549; format: cell-based, human; details: Homo sapiens, A549, SRB
Description: Human cancer cells were purchased from the American Type Culture Collection (Manassas, Va., USA).
Cells were seeded in 96-well plates in medium with 5% fetal bovine serum. […] Unbound sulforhodamine B was washed out by 1% acetic acid and sulforhodamine B-bound cells were solubilized with 10 mmol/L Trizma base. […] Using the following absorbance measurements, such as time zero (T0), control growth (C), and cell growth in the presence of the drug (Tx), the percentage growth was calculated at each of the compound concentrations levels. Percentage growth inhibition was calculated as […].

colorectal HCT116 = assay: Sulforhodamine B (SRB) assay, colorectal HCT116; format: cell-based; details: Homo sapiens, HCT-116, SRB
Description: (§1) Human cancer cells were purchased from the American Type Culture Collection (Manassas, Va., USA). These cell lines were cultured in RPMI 1640 medium or DMEM supplemented with 10% FBS (v/v) and pencillin (100 U/mL)/streptomycin (100 ug/mL)/amphotericin B (0.25 ug/mL). Cultures were maintained at 37° C. in a humidified atmosphere of 5% CO2/95% air.
(§2) Cells were seeded in 96-well plates in medium with 5% fetal bovine serum. After 24 h, cells were fixed with 10% trichloroacetic acid to represent cell population at the time of drug addition (T0). After additional incubation of DMSO or drugs for 48 h, cells were fixed with 10% trichloroacetic acid and sulforhodamine B at 0.4% (w/v) in 1% acetic acid was added to stain cells. Unbound sulforhodamine B was washed out by 1% acetic acid and sulforhodamine B-bound cells were solubilized with 10 mmol/L Trizma base. The absorbance was read at a wavelength of 515 nm. Using the following absorbance measurements, such as time zero (T0), control growth (C), and cell growth in the presence of the drug (Tx), the percentage growth was calculated at each of the compound concentrations levels. Percentage growth inhibition was calculated as […].

prostate PC3 = assay: Sulforhodamine B (SRB) assay, prostate PC3; format: cell-based; details: Homo sapiens, Table 1, 48 h
Description: as §1, §2

[1] = Table 1, 48 h, read-out: GI50 Lung A549
[2] = Table 1, 48 h, read-out: GI50 Colorectal HCT116

Compound | GI50 (lung A549; [1]) [µM] | GI50 (colorectal HCT116; [2]) [µM] | GI50 (prostate PC3) [µM] | GI50 (lung A549; Table 2, read-out: A549 GI50) [µM] | GI50 (colorectal HCT116; Table 2, read-out: HCT116 GI50) [µM]
CCCN(C(=O)c1cc(C(C)C)c(O)cc1O)c1cnc2c(ccn2C)c1 [Compound 24e, 2,4-dihydroxy-5-isopropyl-N-(1-methyl-1H-pyrrolo[2,3-b]pyridin-5-yl)-N-propylbenzamide] | 2.1 ± 0.17 | 3.76 ± 0.23 |  |  | 
CC(C)c1cc(C(=O)Nc2ccc3ncccc3c2)c(O)cc1O [Compound 30a, 2,4-dihydroxy-5-isopropyl-N-(quinolin-6-yl)benzamide] | > 10 |  | > 10 |  | 
CCN(C(=O)c1cc(C(C)C)c(O)cc1O)c1cnc2c(cnn2C)c1 [Compound 26d, N-ethyl-2,4-dihydroxy-5-isopropyl-N-(1-methyl-1H-pyrazolo[3,4-b]pyridin-5-yl)benzamide] | 0.38 ± 0.02 | 0.71 ± 0.06 |  |  | 
CC(C)c1cc(C(=O)N(C)c2cnc3c(ccn3C)c2)c(O)cc1O [Compound 24c, 2,4-dihydroxy-5-isopropyl-N-methyl-N-(1-methyl-1H-pyrrolo[2,3-b]pyridin-5-yl)benzamide] | 0.27 ± 0.03 | 0.71 ± 0.08 |  |  | 
C=CCNC1=C2C[C@@H](C)C[C@H](OC)[C@H](O)[C@@H](C)/C=C(\C)[C@H](OC(N)=O)[C@@H](OC)/C=C\C=C(/C)C(=O)NC(=CC1=O)C2=O [Compound 17-AAG, 17-allylamino-17-desmethoxygeldanamycin, reference compound] |  |  |  | 0.08 ± 0.01 | 0.34 ± 0.06
CCN(C(=O)c1cc(C(C)C)c(O)cc1O)c1ccc2ncccc2c1 [Compound 30c, N-ethyl-2,4-dihydroxy-5-isopropyl-N-(quinolin-6-yl)benzamide] | 0.51 ± 0.09 |  | 0.46 ± 0.13 |  | 
CC(C)c1cc(C(=O)N(C)c2cccc3cccnc23)c(O)cc1O [Compound 31b, 2,4-dihydroxy-5-isopropyl-N-methyl-N-(quinolin-8-yl)benzamide] | 8.7 ± 0.25 | > 10 | 8.93 ± 0.25 |  | 
CC(C)c1cc(C(=O)Nc2ccc3[nH]ncc3c2)c(O)cc1O [Compound 25a, 2,4-dihydroxy-N-(1H-indazol-5-yl)-5-isopropylbenzamide] | > 10 |  | > 10 |  | 
Cc1cc(NC(=O)c2cc(C(C)C)c(O)cc2O)c2ccccc2n1 [Compound 32a, 2,4-dihydroxy-5-isopropyl-N-(2-methylquinolin-4-yl)benzamide] | > 10 |  | > 10 |  | 
CC(C)c1cc(C(=O)N(C)c2ccc3c(c2)CCCN3C)c(O)cc1O [Compound 33c, 2,4-dihydroxy-5-isopropyl-N-methyl-N-(1-methyl-1,2,3,4-tetrahydroquinolin-6-yl)benzamide] |  | 6.51 ± 0.09 | 8.5 ± 0.45 |  | 
CC(C)c1cc(C(=O)N(c2cnc3c(ccn3C)c2)C(C)C)c(O)cc1O [Compound 24f, 2,4-dihydroxy-N, 5-diisopropyl-N-(1-methyl-1H-pyrrolo[2,3-b]pyridin-5-yl)benzamide] | 2.06 ± 0.12 | 3.14 ± 0.87 |  |  | 
CCN(C(=O)c1cc(C(C)C)c(O)cc1O)c1ncnc2c1ccn2C [Compound 27c, N-ethyl-2,4-dihydroxy-5-isopropyl-N-(7-methyl-7H-pyrrolo[2,3-d]pyrimidin-4-yl)benzamide] |  | 3.49 ± 0.15 | 6.68 ± 0.55 |  | 
CC(C)c1cc(C(=O)N(C)c2ccc3c(c2)CCCN3)c(O)cc1O [Compound 33a, 2,4-dihydroxy-5-isopropyl-N-methyl-N-(1,2,3,4-tetrahydroquinolin-6-yl)benzamide] |  | 5.79 ± 0.11 | 7.66 ± 0.42 |  | 
CC(C)c1cc(C(=O)N(c2ncnc3c2ccn3C)C(C)C)c(O)cc1O [Compound 27e, 2,4-dihydroxy-N, 5-diisopropyl-N-(7-methyl-7H-pyrrolo[2,3-d]pyrimidin-4-yl)benzamide] |  | 8.77 ± 0.1 | > 10 |  | 
CC(C)c1cc(C(=O)Nc2cccc3cccnc23)c(O)cc1O [Compound 31a, 2,4-dihydroxy-5-isopropyl-N-(quinolin-8-yl)benzamide] | > 10 |  | > 10 |  | 
CC(C)c1cc(C(=O)Nc2cnc3[nH]ncc3c2)c(O)cc1O [Compound 26a, 2,4-dihydroxy-5-isopropyl-N-(1H-pyrazolo[3,4-b]pyridin-5-yl)benzamide] | > 10 | > 10 | > 10 |  | 
CC(C)c1cc(C(=O)N(C)c2ccc3c(c2)CCN3)c(O)cc1O [Compound 23b, 2,4-dihydroxy-N-(indolin-5-yl)-5-isopropyl-N-methylbenzamide] | 2.82 ± 0.03 | 5.53 ± 0.38 |  |  | 

Compound | GI50 (lung A549; [1]) [µM] | GI50 (colorectal HCT116; [2]) [µM] | GI50 (prostate PC3) [µM] | GI50 (lung A549; Table 2, read-out: A549 GI50) [µM] | GI50 (colorectal HCT116; Table 2, read-out: HCT116 GI50) [µM]
CC(C)c1cc(C(=O)N(C)c2cccc3ncccc23)c(O)cc1O [Compound 29b, 2,4-dihydroxy-5-isopropyl-N-methyl-N-(quinolin-5-yl)benzamide] | > 10 | > 10 | > 10 |  | 
CC(C)c1cc(C(=O)N(C)c2ncnc3c2ccn3C)c(O)cc1O [Compound 27b, 2,4-dihydroxy-5-isopropyl-N-methyl-N-(7-methyl-7H-pyrrolo[2,3-d]pyrimidin-4-yl)benzamide] |  | 8.96 ± 0.18 | 8.49 ± 0.49 |  | 
CC(C)c1cc(C(=O)N(c2cnc3c(cnn3C)c2)C(C)C)c(O)cc1O [Compound 26f, 2,4-dihydroxy-N, 5-diisopropyl-N-(1-methyl-1H-pyrazolo[3,4-b]pyridin-5-yl)benzamide] | 3.64 ± 0.05 | 6.86 ± 0.48 |  |  | 
CC(C)c1cc(C(=O)Nc2cnc3c(cnn3C)c2)c(O)cc1O [Compound 26b, 2,4-dihydroxy-5-isopropyl-N-(1-methyl-1H-pyrazolo[3,4-b]pyridin-5-yl)benzamide] | > 10 | > 10 |  |  | 
CC(C)c1cc(C(=O)Nc2cnc3ccccc3c2)c(O)cc1O [Compound 28a, 2,4-dihydroxy-5-isopropyl-N-(quinolin-3-yl)benzamide] | > 10 |  | > 10 |  | 
CC(C)c1cc(C(=O)N(C)c2cnc3c(cnn3C)c2)c(O)cc1O [Compound 26c, 2,4-dihydroxy-5-isopropyl-N-methyl-N-(1-methyl-1H-pyrazolo[3,4-b]pyridin-5-yl)benzamide] | 0.7 ± 0.04 | 1.15 ± 0.22 |  |  | 
CC(C)c1cc(C(=O)N(C)c2ccc3c(cnn3C)c2)c(O)cc1O [Compound 25b, 2,4-dihydroxy-5-isopropyl-N-methyl-N-(1-methyl-1H-indazol-5-yl)benzamide] | 0.11 ± 0.01 |  | 0.1 ± 0.01 |  | 
CC(C)c1cc(C(=O)Nc2ncnc3c2ccn3C)c(O)cc1O [Compound 27a, 2,4-dihydroxy-5-isopropyl-N-(7-methyl-7H-pyrrolo[2,3-d]pyrimidin-4-yl)benzamide] |  | > 10 | > 10 |  | 
CC(C)c1cc(C(=O)Nc2cccc3ncccc23)c(O)cc1O [Compound 29a, 2,4-dihydroxy-5-isopropyl-N-(quinolin-5-yl)benzamide] | > 10 |  | > 10 |  | 
CC(C)c1cc(C(=O)N(C)c2ccc3ncccc3c2)c(O)cc1O [Compound 30b, 2,4-dihydroxy-5-isopropyl-N-methyl-N-(quinolin-6-yl)benzamide] | > 10 |  | > 10 |  | 
CCN(C(=O)c1cc(C(C)C)c(O)cc1O)c1ccc2c(c1)CCCN2 [Compound 33b, N-ethyl-2,4-dihydroxy-5-isopropyl-N-(1,2,3,4-tetrahydroquinolin-6-yl)benzamide] |  | 5.38 ± 0.1 | 6.01 ± 0.41 |  | 
CC(C)c1cc(C(=O)N(C)c2cnc3ccccc3c2)c(O)cc1O [Compound 28b, 2,4-dihydroxy-5-isopropyl-N-methyl-N-(quinolin-3-yl)benzamide] | > 10 |  | > 10 |  | 
CCN(C(=O)c1cc(C(C)C)c(O)cc1O)c1cccc2cccnc12 [Compound 31c, N-ethyl-2,4-dihydroxy-5-isopropyl-N-(quinolin-8-yl)benzamide] | 3.7 ± 0.17 |  | 2.4 ± 0.27 |  | 
CCCN(C(=O)c1cc(C(C)C)c(O)cc1O)c1ncnc2c1ccn2C [Compound 27d, 2,4-dihydroxy-5-isopropyl-N-(7-methyl-7H-pyrrolo[2,3-d]pyrimidin-4-yl)-N-propylbenzamide] |  | > 10 | > 10 |  | 
CCCN(C(=O)c1cc(C(C)C)c(O)cc1O)c1cnc2c(cnn2C)c1 [Compound 26e, 2,4-dihydroxy-5-isopropyl-N-(1-methyl-1H-pyrazolo[3,4-b]pyridin-5-yl)-N-propylbenzamide] | 4.21 ± 0.22 | 8.29 ± 0.29 |  |  | 
CCN(C(=O)c1cc(C(C)C)c(O)cc1O)c1ccc2c(c1)CCCN2C [Compound 33d, N-ethyl-2,4-dihydroxy-5-isopropyl-N-(1-methyl-1,2,3,4-tetrahydroquinolin-6-yl)benzamide] |  | 5.71 ± 0.12 | 8.18 ± 0.46 |  | 
CCN(C(=O)c1cc(C(C)C)c(O)cc1O)c1cnc2c(ccn2C)c1 [Compound 24d, N-ethyl-2,4-dihydroxy-5-isopropyl-N-(1-methyl-1H-pyrrolo[2,3-b]pyridin-5-yl)benzamide] | 0.23 ± 0.03 | 0.44 ± 0.19 |  |  | 
